Results from patent US20020013478A1, “Calanolide analogues and methods of their use” (Sarawak Medichem Pharmaceuticals,Inc., priority 1994, published 2002).
Values after ≈ are worked out from the molar mass of the structure shown. Read-outs that look alike come from different tables or passages of the source. Values belong to the compound of their own block, whether it stands above or below them.

Columns and labels:
[1] = system: AZT-resistant G-9106 strain of HIV; conditions: cited from earlier work
Raji or Daudi cells = test: Toxicity run with the EBV assay; format: cell-based, human; conditions: Table II
Excerpt: IC50 (50% inhibitory concentration) is the concentration required to inhibit cell proliferation by 50%

G910-6 HIV viral strain = test: In vitro MTT assay, AZT-resistant isolate (Example 37, FIGS. 1); conditions: G910-6 strain, FIGS. 1(a)-1(e)
EBV = EBV assay: superinfection of Raji or Daudi cells with P3HR-1, immunofluorescence for EA and VCA; format: cell-based, Epstein-Barr virus; conditions: Table II
Excerpt: There are two prototypes of infectious EBV. One is exemplified by the virus derived from supernatant fluids of the P3HR-1cell line. This cell line produces nontransforming virus that causes the production of early antigen (EA) after primary infection or superinfection of B cell lines. The other prototype is exemplified by the B-95-8 virus. This virus immortalized cord blood lymphocytes and induced tumors in marmosets.
The virus used in our assays is P3HR-1.
Ramos is an exceptional B cell line derived from Burkitt's lymphoma tumor but containing no detectable EBV genome copies and is EBNA negative. Ramos/AW was obtained by in vitro infection of Ramos with the P3HR-1 virus and contains one resident EBV genome copy/cell. Raji is a Burkitt's lymphoma cell line containing 60 EBV genomes/cell, and will be the primary cell used for screening antiviral activity against EBV EA expression. Daudi is a low level producer that contains 152 EBV genome copies/cell. It spontaneously expresses EBV EA in 0.25%-0.5% of the cells. It will be used in follow-up studies to confirm activity. These cell lines respond to superinfection by EBV by expressing EA(D), EA(R), and VCA. All cell lines are maintained in RPMI-1640 medium supplemented by 10% FCS, L-glutamine and 100 μg/mL gentamicin. The cultures are fed twice weekly and the cell concentration adjusted to 3×10^5/mL. The cells are kept at 37° C. in a humidified atmosphere with 5% CO2.
Cells are infected with the P3HR-1 strain of EBV and the drugs to be tested are added after adsorption (45 minutes at 37° C.) and washing of the cell cultures. The cultures are incubated for two days in complete medium to allow viral gene expression. Following the 48 hr incubation period, the number of cells of each sample are counted and smears made. Monoclonal antibodies to the different EA components and VCA are then added to the cells incubated and washed. This is followed by a fluorescein conjugated rabbit anti-mouse Ig antibody; and the number of fluorescence positive cells in the smears are counted. The total number of cells in the cultures positive for EA or VCA are then calculated and compared.

[2] = system: human foreskin fibroblast cells; test: Toxicity run with the HCMV assay, human foreskin fibroblast cells; format: cell-based; conditions: Table II; for IC50: Homo sapiens, Fibroblast
Protocol: (§1) [table] […] The media from the wells is then aspirated and 2 mL of each drug concentration is then added to each well. The cells are then incubated in a CO2 incubator at 37° C. for 72 h. At the end of this time, the media-drug solution is removed and the cells washed. […] The cell-media mixture is then pipetted up and down vigorously to break up the cell suspension, and 0.2 mL of the mixture is added to 9.8 mL of Isoton III and counted using a Coulter Counter. Each sample is counted three times with three replicate wells per sample. The procedure for plating cells and adding drug is the same as for the MTT Assay. After drug addition, the plates are incubated for seven days in a CO2 incubator at 37° C. […] This is incubated in the CO2 incubator for one hour. The dye is aspirated and the cells are washed using a Nunc Plate Washer. […] The plates are rotated for 15 minutes and the optical densities are read at 550 nm on a plate reader.

HCMV = HCMV semi-automated CPE-inhibition assay in human foreskin fibroblast cells; format: cell-based, human cytomegalovirus; conditions: Table II; for EC50: Human betaherpesvirus 5, Fibroblast
2.2.15 cells = test: Toxicity in 2.2.15 cells, neutral red dye uptake; format: cell-based, human
Protocol: Cells of 2.2.15 were grown to confluence in 96-well flat-bottomed tissue culture plates and treated with compounds (in 0.2 mL culture medium/well) as described above. Four concentrations of each compound were assayed, each in triplicate cultures, in 3- to 10-fold steps. Untreated control cultures were maintained on each 96-well plate. On each 96-well plate, wells containing no cells were used to correct for light scattering.

[3] = system: human T-lymphoblastic cells (CEM-SS); conditions: cited from earlier work
[4] = system: pyridinone-resistant A17 virus; conditions: cited from earlier work
HBV = HBV replication in cultures of 2.2.15 cells, extracellular HBV virion DNA (primary assay); conditions: for activity in primary assay (HBV virion): text summary of Table IV
HIV-1 [5] = conditions: cited from earlier work
[6] = system: human foreskin fibroblast cells; test: Toxicity run with the VZV assay, human foreskin fibroblast cells; format: cell-based; conditions: Table II
Protocol: as §1

HBV RI = test: HBV replication in 2.2.15 cells, intracellular DNA replication intermediates (secondary assay); conditions: for EC50: read-out: HBV RI EC50; for EC90: read-out: HBV RI EC90
VZV = VZV plaque reduction assay in human foreskin fibroblast cells; format: cell-based, varicella zoster virus; conditions: Table II
Protocol: Two days prior to use, HFF cells are plated into six-well plates and incubated at 37° C. with 5% CO2 and 90% humidity. On the date of assay, the drug is made up at twice the desired concentration in 2x MEM and then serially diluted 1:5 in 2x MEM using six concentrations of drug. The initial starting concentration is usually 200 gg/mL down to 0.06 μg/mL. The virus to be used is diluted in MEM containing 10% FBS to a desired concentration which will give 20-30 plaques per well. The media is then aspirated from the wells and 0.2 mL of virus is added to each well in duplicate with 0.2 mL of media being added to drug toxicity wells. The plates are then incubated for one hour with shaking every fifteen minutes. After the incubation period, an equal amount of 1% agarose was added to an equal volume of each drug dilution. This will give final drug concentrations beginning with 100 μg/mL and ending with 0.03 μg/mL and a final agarose overlay concentration of 0.5%. The drug agarose mixture is applied to each well in 2 mL volume and the plates then incubated for three days, after which the cells were stained with a 1.5% solution of neutral red. At the end of 4-6hr incubation period, the stain is aspirated, and plaques counted using a stereomicroscope at lOx magnification.
The procedure is essentially the same as for the HSV plaque assay described above with two exceptions:
1. After addition of the drug, the plates are incubated for ten days.
2. On days three and six, an additional 1 mL overlay with equal amounts of 2x MEM and 1% agarose are added.

H112-2 HIV viral strain = test: In vitro MTT assay, isolate not pre-treated with AZT (Example 37, FIGS. 2); conditions: H112-2 strain; FIGS. 2(a)-2(e)
[7] = system: uninfected cells (MT-2, CEM-SS); test: MTT cytotoxicity on uninfected cells (Example 37); format: cell-based, human
HIV-1 [8] = conditions: for Maximum Protection (%): CEM-SS MTT assay; for protecting cells against HIV infection: text summary of Table I
HIV-1 [9] = test: microbe, parasite or virus in culture; conditions: Human immunodeficiency virus 1, CEM-SS
CEM-SS cells = test: CEM-SS MTT assay, cytotoxicity (Table I); format: cell-based, human; conditions: Homo sapiens
[10] = Homo sapiens, Table II, read-out: HBV IC50
[11] = Hepatitis B virus, read-out: HBV EC50

Structure (SMILES): CCCc1cc(=O)oc2c3c(c4c(c12)OC(C)(C)C=C4)O[C@H](C)[C@@H](C)[C@@H]3O [(+)-1, (+)-Calanolide A]
activity against AZT-resistant G-9106 strain of HIV [1]: active
IC50 (Raji or Daudi cells; Homo sapiens): > 50 µg/mL
antiviral effect (reducing viral CPE) (G910-6 HIV viral strain): effective in reducing viral CPE
EC50 (EBV; human gammaherpesvirus 4): > 50 µg/mL
IC50 [2]: 86.2 µg/mL (≈ 233 µM)
EC50 (HCMV): > 20 µg/mL
IC50 (2.2.15 cells; [10]): 175 µM
IC50 [3]: 20 µM
activity against pyridinone-resistant A17 virus [4]: active
EC50 (HBV; [11]): > 2.6 µM
EC50 (HIV-1 [5]; HIV-1 replication in CEM-SS cells): 0.1 µM
protection against the cytopathic effects of HIV-1 (HIV-1 [5]; down to a concentration of 0.1 μM): 100%

Structure (SMILES): CCCc1cc(=O)oc2c3c(c4c(c12)OC(C)(C)C=C4)OCC(C)C3=O (racemic) [(±)-15f]
EBV IC50 (Raji or Daudi cells): >50 µg/mL
VZV IC50 [6]: 60.0 µg/mL
EBV EC50 (EBV): >50 µg/mL
HCMV IC50 [2]: >100 µg/mL
HCMV EC50 (HCMV): >100 µg/mL
IC50 (2.2.15 cells; Table II, read-out: HBV IC50): 270 µM
IC50 (2.2.15 cells; Table IV, HBV RI columns, read-out: HBV RI IC50): 303 µM
IC50 (2.2.15 cells; Table IV, HBV Virion columns, read-out: HBV Virion IC50): 303 µM
EC50 (HBV; read-out: HBV EC50, Table II): 0.67 µM
EC50 (HBV; read-out: HBV Virion EC50, Table IV): 0.81 µM
EC90 (HBV; read-out: HBV Virion EC90, Table IV): 5 µM
activity in primary assay (HBV virion) (HBV): active
EC50 (HBV RI; Table IV): 5.7 µM
EC90 (HBV RI; Table IV): 15 µM
activity in secondary assay (HBV RI) (HBV RI; text summary of Table IV): active
VZV EC50 (VZV): >20 µg/mL

Structure (SMILES): CCCc1cc(=O)oc2c3c(c4c(c12)OC(C)(C)C=C4)O[C@@H](C)[C@H](C)[C@H]3O [(−)-1, (-)-Calanolide A]
EBV IC50 (Raji or Daudi cells): >100 µg/mL
antiviral effect (reducing viral CPE) (G910-6 HIV viral strain): very little antiviral effect
EBV EC50 (EBV): >100 µg/mL
HCMV IC50 [2]: 80.3 µg/mL
HCMV EC50 (HCMV): >20 µg/mL
antiviral effect (reducing viral CPE) (H112-2 HIV viral strain): very little antiviral effect
IC50 (2.2.15 cells; Table II, read-out: HBV IC50): 173 µM
EC50 (HBV; read-out: HBV EC50, Table II): > 30 µM
toxicity ([7]; FIGS. 2(a)-2(e)): relatively non-toxic
toxicity ([7]; at concentrations of 1 μg/mL, FIGS. 1(a)-1(e)): relatively non-toxic

Structure (SMILES): CCCc1cc(=O)oc2c(C(=O)[C@@H](C)[C@H](C)O)c(O)c3c(c12)OC(C)(C)C=C3 (relative stereo) [(±)-8b, 6,6-Dimethyl-9-hydroxy-10-12(S*)-methyl-3(S*)-hydroxybutyro]4-propyl-2H,6H-benzo[1,2-b:3,4-b′]dipyran-2-one]
Maximum Protection (%) (HIV-1 [8]): 81%
protecting cells against HIV infection (HIV-1 [8]): highly efficacious
melting point: 115 °C
EC50 (HIV-1 [9]): 2.28 µM
IC50 (CEM-SS cells): 21.5 µM

Structure (SMILES): CCCc1cc(=O)oc2c3c(c4c(c12)OC(C)(C)C=C4)O[C@H](C)[C@@H](C)[C@@H]3O (racemic) [(±)-calanolide A, (±)-Calanolide A]
antiviral effect (reducing viral CPE) (G910-6 HIV viral strain): effective in reducing viral CPE
antiviral effect (reducing viral CPE) (H112-2 HIV viral strain): nearly as effective as (+)-calanolide A

Structure (SMILES): CCCc1cc(=O)oc2c(C(=O)[C@@H](C)[C@@H](C)O)c(O)c3c(c12)OC(C)(C)C=C3 (relative stereo) [(±)-8a, 6,6-Dimethyl-9-hydroxy-10-[2(S*)-methyl-3(R*)-hydroxybutyro-]4-propyl-2H,6H-benzo[1,2-b:3,4b′]dipyran-2-one]
Maximum Protection (%) (HIV-1 [8]): 84%
protecting cells against HIV infection (HIV-1 [8]): highly efficacious
melting point: 66 to 67 °C
EC50 (HIV-1 [9]): 6.16 µM
IC50 (CEM-SS cells): 23.8 µM

Structure (SMILES): CCCc1cc(=O)oc2c3c(c4c(c12)OC(C)(C)C=C4)OC(C)C(C)(C)C3=O (racemic) [(±)-15a, (±)-10,11-Dihydro-6,6,10,11,11-pentamethyl-4-propyl-2H,6H, 12H-benzo[1,2-b:3,4-b′:5,6-b″]tripyran-2,12-dione]
IC50 [2]: > 100 µg/mL
EC50 (HCMV): > 100 µg/mL
IC50 (2.2.15 cells; [10]): 1990 µM
IC50 (2.2.15 cells; Homo sapiens, Table IV, HBV RI columns, read-out: HBV RI IC50): 1790 µM
IC50 (2.2.15 cells; Homo sapiens, Table IV, HBV Virion columns, read-out: HBV Virion IC50): 1790 µM
EC50 (HBV; [11]): 2 µM
EC90 (HBV; Hepatitis B virus, read-out: HBV EC90): 16 µM
EC50 (HBV; Hepatitis B virus, read-out: HBV Virion EC50): 2.8 µM
EC90 (HBV; Hepatitis B virus, read-out: HBV Virion EC90): 20 µM
activity in primary assay (HBV virion) (HBV): active
EC50 (HBV RI; Hepatitis B virus): > 30 µM
EC90 (HBV RI; Hepatitis B virus): > 30 µM
IC50 (CEM-SS cells): 19.3 µM

melting point: 176 to 177 °C
Structure (SMILES): CCCc1cc(=O)oc2c3c(c4c(c12)OC(C)(C)C=C4)OC(C)=C(C)C3O (stereo not drawn) [Compound 6, 12-hydroxy-6,6,10,11-tetramethyl-4-propyl-2H,6H,12H-benzo[1,2-b:3,4-b′:5,6-b″]tripyran-2-one]

Structure (SMILES): Cc1cn([C@H]2C[C@H](N=[N+]=[N-])[C@@H](CO)O2)c(=O)[nH]c1=O [AZT, reference compound]
antiviral effect (reducing viral CPE) (G910-6 HIV viral strain): little to no effect
antiviral effect (reducing viral CPE) (H112-2 HIV viral strain): sensitive to AZT
